The numbers were not newly measured in paper PMC10184130, which cites them from elsewhere.

For the data set the following is noted: likely due to the basic amidine moiety; cited from earlier work.

In the case of `CSc1sc(C(=N)N)cc1S(=O)(=O)c1cccc(-c2c(C)cccc2NC(=O)CCCS(C)(=O)=O)c1` [Compound 1], the “in vivo pharmacokinetics (PK) properties” value is recorded as “poor”.
